Source: patent US20030211036A1, “Method and apparatus for monitoring and quantitatively evaluating tumor perfusion” (priority 2002, published 2003)

Experiments:
[1] = HDO concentration in mice plasma by 2H-MRS during and post 2H-saline i.v. infusion (arterial input function); format: in vivo
Experimental: (§1) Enrichment of the mice's blood with HDO (99.8%) was achieved by applying a slow i.v. infusion of I ml ^2H-saline with a rate of 100 μl/min.
Blood samples ([…]) were drawn from anesthetized mice by retro orbital sinus puncture at 7 time points, 3 mice for each time point, during and post ^2H saline infusion. Samples were collected into separate tubes containing heparin (50 units/ml of blood, Elkins-Sinn Inc., Cherry Hill, N.J.) and were centrifuged at room temperature. The plasma supernatant samples were separated and transferred into 5 mm NMR tubes. ^2H-MR spectra of the plasma samples were recorded at 61.4 MHz on DMX-400 spectrometer (Bruker Analytik, Germany), with a broad-band probe by applying 90° pulses with 4 s repetition time (fully relaxed conditions). Choline-(CD3)3 was added to each plasma sample as an internal reference for concentration.
The 2-compartment kinetic model related the concentration of the tracer in the tissue to tissue's perfusion, as shown by Eq. [3]. Thus, knowledge of the changing arterial tracer concentration over time, termed arterial input function, was required for the numerical solution of the model. In order to obtain qualitative ^2H-images of the tumors and to allow monitoring of HDO uptake with high spatial resolution, a slow i.v. infusion of ^2H-saline, 1 ml in 10 min. was applied. This protocol enriched the content of HDO in the plasma, which is 0.0148% at natural abundance, by 6.8% of HDO that is below toxic levels (13, 14). HDO concentration in the plasma, determined by ^2H-MRS, was monitored during and post-^2H saline infusion (FIG. 1A). During the infusion, HDO accumulated linearly with a correlation coefficient, R^2, of 0.996. The slow decay of HDO in the plasma, post-infusion, approximated linearity with R^2=0.730. Thus, a linear regression analysis of the blood input function Cp(t), was applied in parts, producing two linear functions: (i) during ^2H-saline infusion at t=t0−tinfus, Cp(t)=f(t)=at+b and (ii) post ^2H-saline infusion at t=tinfus−tend, Cp(t)=g(t)=ct+d. […] The plasma concentrations of HDO before and at the end of ^2H-saline infusion were b=0.016 mmol·ml^−1 and d=7.69 mmol·ml^−1, respectively.

[2] = system: orthotopic MCF7 human breast cancer tumors; experiment: Dynamic 3D 2H-MRI of HDO perfusion with two-compartment model-based analysis per voxel; format: in vivo, CD1-NU mice
Source text: A two-compartment model was custom developed for this activity to describe the kinetics of HDO in MCF7 tumors. The model, designed by Yeung et al. (41) to calculate blood brain transfer constant, is a special case of Patlak's blood-brain exchange model (31, 32). In the present work, the two compartments were assigned to the intravascular space with its respective volume fraction vp and the extravascular space, with its effective volume fraction of water ve* which is approximately 70% of the actual extravascular volume ve (ve*=0.7 ve) their respective volume fraction vp and ve* where,
The experimental kinetic data were fitted to Eq. [7] and Eq. [8] with two free parameters: K and vp, using the following substitutions: ve*=1−vp and kb=K/(1−vp). Deuterium signal intensity per pixel in arbitrary units was converted to Cv(t) in mmol/ml using a calibration solution of known deuterium concentration in saline solution ( 9.9 mmol/ml).
The method and apparatus of the present invention were tested experimentally according to the following protocol. Female CD1-NU athymic mice, 6 weeks old, were orthotopically inoculated in the mammary fat pad with MCF7 human breast cancer cells as previously described (33). Tumors were allowed to develop for 4-8 weeks, to sizes ranging between 0.2-2 cm^3 with average size 0.8±0.2 cm^3. For the MRI measurements, mice were anesthetized by exposure to 1% isoflurane (Medeva Pharmaceuticals, Inc., Rochester, N.Y.), in an O2/N2O (3:7) mixture, applied through a nose cone. Approval was obtained for all animal procedures according to the guidelines of the Committee on Animals of the Weizmann Institute of Science.
as §1
In-vivo imaging was accomplished by taking MR images and recording with a 4.7 T Biospec spectrometer (Bruker Analytik, Germany). ^2H and ^1H images were recorded at frequencies of 30.7 MHz and 200 MHz, respectively, and detected by a home-built double-tuned ^2H/^1H surface coil system, 1.5/2.5 cm in diameter. Dynamic ^2H MR images were acquired utilizing a 3-dimensional (3D) gradient echo sequence with the following parameters: echo time (TE)=3 msec, […] (TR)=60 msec, flip angle=45° achieved by an adiabatic pulse (sin/cos), 2 averages, matrix—128×64×16, 2.6 mm slice thickness, an in-plane resolution of 1×2 mm2 and acquisition time of 2.05 min. The sequential acquisition of ^2H-images began with a pre-infusion image and continued throughout ^2H-saline iv. infusion, into the tail vein of the mouse (1 ml/10 min.), and for 30 minutes thereafter. The pre-infusion images were recorded with a tube containing 9.9 mmol/ml HDO in saline solution, attached to the tumor. This served to calibrate the signal intensity to deuterium concentration in units of mmol/ml.
Image analysis was applied on the time evolution of ^2H intensity in a series of coronal images that were reconstructed from dynamic 3D images of the whole tumor acquired before, during and post ^2H-saline infusion. Analysis was performed utilizing a nonlinear least-square fitting algorithm, developed for the purpose of the invention, at a voxel resolution. The computed analysis initially converted ^2H intensity to concentration by referring to the intensity at the pre-infusion image (t=0) in the attached calibration tube that contained a solution of HDO at a concentration of 9.9 mmol/ml. […]

[3] = General well-being of the animals under the slow i.v. 2H-saline infusion protocol; format: in vivo, mice; details: i.v. infusion of 1 ml 2H-saline at 100 μl/min
Experimental: as §1

[4] = cited from earlier work

plasma concentration of HDO before 2H-saline infusion (b) ([1]; mice plasma, before infusion): 16000 µM
plasma concentration of HDO at the end of 2H-saline infusion (d) ([1]; mice plasma, end of i.v. infusion, 1 ml in 10 min): 7.69e+06 µM
rate of HDO clearance from plasma post infusion (c) ([1]; mice plasma, post 2H-saline infusion, linear regression g(t)=ct+d): -0.07 mmol/mL/min
rate of HDO accumulation in plasma during infusion (a) ([1]; mice plasma, slow i.v. infusion of 2H-saline, 1 ml in 10 min, linear regression f(t)=at+b): 0.67 mmol/mL/min
enrichment of the content of HDO in the plasma ([1]; slow i.v. infusion of 2H-saline, 1 ml in 10 min, natural abundance 0.0148%): 6.8%
concentration of HDO in the plasma upon infusion with respect to bolus injection ([1]; slow i.v. infusion versus bolus injection of 200 μl): ~6 times higher
K, fit to the HDO perfusion kinetic model ([2]; FIG. 3 single voxel (a), R^2=0.94): 0.0016 min⁻¹
K, fit to the HDO perfusion kinetic model ([2]; FIG. 3 single voxel (b), R^2=0.94): 0.0005 min⁻¹
K, fit to the HDO perfusion kinetic model ([2]; FIG. 3 single voxel (c), R^2=0.96): 0.0031 min⁻¹
range of the perfusion rate per voxel ([2]; all voxels of the parametric maps, seven MCF7 tumors): 4e-06 to 0.0039 min⁻¹
Perfusion rate, K, Mean, Average ([2]; average of the total population of voxels in the ROIs of all tumors (n = 1278 pixels)): 1.02 ± 0.02 ·10^−3 min^−1
Structure (SMILES): [2H]O[2H] [HDO, deuterated water]
adverse effects on the general well-being of the animals [3]: no adverse effects
HDO enrichment of body fluids considered nontoxic [4]: up to 10%
